# Experimental data taken from US6642217B2, “Triterpenes having human antifungal and antiyeast activity” (Naturtek, LLC, priority 2000, dated 2003).
# Experiments:
# [1] = test system: Trichophyton tonsuran; test: Agar dilution method, growth on Sabouraud dextrose agar slants; type: cell-based, Trichophyton tonsurans; design: key: +++: Maximum Fungal Growth; ++: Moderate Fungal Growth; +: Minimum Fungal Growth; +/−: Very little Fungal Growth; −: No Fungal Growth; details: 12th day after inoculation
# Protocol: (§1) Agar dilution method. Sabouraud Dextrose Agar (Difco Laboratories, Michigan) was prepared according to the manufacturer's instructions. Five ml was dispensed in a 100×25 mm tube and autoclaved. To each tube containing 5.0 ml of liquid agar at 45° C., 0.5, 0.25, 0.12, or 0.063 ml of a DMSO solution of the compound was added to give the final indicated concentrations in Table 2. The agar was then solidified in slants. Fungal cultures were inoculated. The slants were incubated at 25-28° C. for 10-12 days, and the growth of the fungus was recorded every second day.
# [2] = test system: Microsporum canis; test: as above; type: cell-based; design: key: +++: Maximum Fungal Growth; ++: Moderate Fungal Growth; +: Minimum Fungal Growth; +/−: Very little Fungal Growth; −: No Fungal Growth; details: 12th day after inoculation
# Protocol: as §1
# [3] = test system: Trichophyton rubrum; test: as above; type: cell-based; design: key: +++: Maximum Fungal Growth; ++: Moderate Fungal Growth; +: Minimum Fungal Growth; +/−: Very little Fungal Growth; −: No Fungal Growth; details: 12th day after inoculation
# Protocol: as §1
# [4] = test system: Pityrosporum ovale; test: as above; type: cell-based; design: key: +++: Maximum Fungal Growth; ++: Moderate Fungal Growth; +: Minimum Fungal Growth; +/−: Very little Fungal Growth; −: No Fungal Growth; details: 12th day after inoculation
# Protocol: as §1
# [5] = test system: Microsporum gypseum; test: as above; type: cell-based; design: key: +++: Maximum Fungal Growth; ++: Moderate Fungal Growth; +: Minimum Fungal Growth; +/−: Very little Fungal Growth; −: No Fungal Growth; details: 12th day after inoculation
# Protocol: as §1
# [6] = test system: Trichophyton mentagrophyte; test: as above; type: cell-based, Trichophyton mentagrophytes; design: key to Fungal growth: +++: Maximum Fungal Growth; ++: Moderate Fungal Growth; +: Minimum Fungal Growth; +/−: Very little Fungal Growth; −: No Fungal Growth; details: for Fungal growth: 12th day after inoculation
# Protocol: as §1
# [7] = test system: Epidermophyton floccosum; test: as above; type: cell-based; design: key to Fungal growth: +++: Maximum Fungal Growth; ++: Moderate Fungal Growth; +: Minimum Fungal Growth; +/−: Very little Fungal Growth; −: No Fungal Growth; details: 12th day after inoculation
# Protocol: as §1
# [8] = test system: Microsporum audouinni; test: as above; type: cell-based, Microsporum audouinii; design: key: +++: Maximum Fungal Growth; ++: Moderate Fungal Growth; +: Minimum Fungal Growth; +/−: Very little Fungal Growth; −: No Fungal Growth; details: 12th day after inoculation
# Protocol: as §1
# [9] = test system: Microsporum audouinni; test: Direct addition method, solid compound in Sabouraud dextrose agar; type: cell-based, Microsporum audouinii; design: key to Fungal growth: +++: Maximum Fungal Growth; ++: Moderate Fungal Growth; +: Minimum Fungal Growth; +/−: Very little Fungal Growth; −: No Fungal Growth; details: 4 mg/mL of agar; 12th day after inoculation
# Protocol: (§2) Direct addition method. Sabouraud dextrose agar was prepared according to the manufacturer's instructions and 5.0 ml was dispensed in each 100×25 mm tube. The tubes were autoclaved. To each tube containing 5.0 ml of liquid agar at 45° C., 20 mg of solid test compound was added, to give a final concentration of 4 mg/ml. The agar was solidified in slants. The fungal cultures were then innoculated. The slants were incubated at 25-28 ° C. for 10-12 days, and the growth of the fungus was recorded every second day. The results in Table 2 indicate growth at the 12th day of inoculation.
# [10] = test system: Pityrosporum ovale; test: Direct addition into the Pityrosporum agar; type: cell-based; design: key to Pityrosporum ovale growth: +++: Maximum Growth; ++: Moderate Growth; +: Minimum Growth; +/−: Very Little Growth; −: No Growth; details: for Pityrosporum ovale growth: 4 mg/ml in the agar, 18 hours after inoculation
# Protocol: Direct addition method. Sabouraud dextrose agar was prepared according to the manufacturer's instructions and 5.0 ml was dispensed in each 100×25 mm tube. The tubes were autoclaved. To each tube containing 5.0 ml of liquid agar at 45° C., 20 mg of solid test compound was added, to give a final concentration of 4 mg/ml. The agar was solidified in slants. The fungal cultures were then innoculated. […]
# [11] = test system: Microsporum canis; test: Direct addition method, solid compound in Sabouraud dextrose agar; type: cell-based; design: key: +++: Maximum Fungal Growth; ++: Moderate Fungal Growth; +: Minimum Fungal Growth; +/−: Very little Fungal Growth; −: No Fungal Growth; details: 4 mg/mL of agar; 12th day after inoculation
# Protocol: as §2
# [12] = test system: Epidermophyton floccosum; test: as above; type: cell-based; design: key: +++: Maximum Fungal Growth; ++: Moderate Fungal Growth; +: Minimum Fungal Growth; +/−: Very little Fungal Growth; −: No Fungal Growth; details: 4 mg/mL of agar; 12th day after inoculation
# Protocol: as §2
# [13] = test system: Trichophyton rubrum; test: as above; type: cell-based; design: key: +++: Maximum Fungal Growth; ++: Moderate Fungal Growth; +: Minimum Fungal Growth; +/−: Very little Fungal Growth; −: No Fungal Growth; details: 4 mg/mL of agar; 12th day after inoculation
# Protocol: as §2
# [14] = test system: Pityrosporum ovale; test: as above; type: cell-based; design: key: +++: Maximum Fungal Growth; ++: Moderate Fungal Growth; +: Minimum Fungal Growth; +/−: Very little Fungal Growth; −: No Fungal Growth; details: 4 mg/mL of agar; 12th day after inoculation
# Protocol: as §2
compound,measurement,setting,value
"C=C(C)[C@@H]1CC[C@]2(COC(=O)COCC(=O)O)CC[C@]3(C)[C@H](CC[C@@H]4[C@@]5(C)CC[C@H](OC(=O)COCC(=O)O)C(C)(C)[C@@H]5CC[C@]43C)[C@@H]12 [Betulin-3,28-didiglycolate]",Fungal growth,[1]; 125 μg/ml,++
same,Fungal growth,[1]; 250 μg/ml,+
same,Fungal growth,[1]; 500 μg/ml,+
same,Fungal growth,[1]; 1000 μg/ml,−
same,Fungal growth,[2]; 125 μg/ml,+++
same,Fungal growth,[2]; 250 μg/ml,+++
same,Fungal growth,[2]; 500 μg/ml,+
same,Fungal growth,[2]; 1000 μg/ml,−
same,Fungal growth,[3]; 125 μg/ml,++
same,Fungal growth,[3]; 250 μg/ml,+
same,Fungal growth,[3]; 500 μg/ml,+
same,Fungal growth,[3]; 1000 μg/ml,−
same,Fungal growth,[4]; 125 μg/ml,+++
same,Fungal growth,[4]; 250 μg/ml,+++
same,Fungal growth,[4]; 500 μg/ml,++
same,Fungal growth,[4]; 1000 μg/ml,+/−
same,Fungal growth,[5]; 125 μg/ml,+++
same,Fungal growth,[5]; 250 μg/ml,+++
same,Fungal growth,[5]; 500 μg/ml,++
same,Fungal growth,[5]; 1000 μg/ml,−
same,Fungal growth,[6]; 125 μg/ml,+
same,Fungal growth,[6]; 250 μg/ml,+
same,Fungal growth,[6]; 500 μg/ml,+/−
same,Fungal growth,[6]; 1000 μg/ml,−
same,best antifungal or anti-yeast activity by the agar dilution method,[6]; against Trichophyton mentagrophytes,against Trichophyton mentagrophytes
same,Fungal growth,[7]; 125 μg/ml,++
same,Fungal growth,[7]; 250 μg/ml,+
same,Fungal growth,[7]; 500 μg/ml,−
same,Fungal growth,[7]; 1000 μg/ml,−
same,Fungal growth,[8]; 125 μg/ml,++
same,Fungal growth,[8]; 250 μg/ml,++
same,Fungal growth,[8]; 500 μg/ml,−
same,Fungal growth,[8]; 1000 μg/ml,−
"C=C(C)[C@@H]1CC[C@]2(COC(=O)CCCC(=O)O)CC[C@]3(C)[C@H](CC[C@@H]4[C@@]5(C)CC[C@H](OC(=O)CCCC(=O)O)C(C)(C)[C@@H]5CC[C@]43C)[C@@H]12 [Betulin-3,28-diglutarate]",Fungal growth,[9],+
same,Growth inhibition of Pityrosporum ovale by the direct addition method,[10]; 4 mg/ml,inhibited the growth
same,Pityrosporum ovale growth,[10],+/−
same,Fungal growth,[11],+
same,Fungal growth,[12],−
same,Fungal growth,[13],+
same,Fungal growth,[14],−
CC1(C)CCC23CCC4(C)C(CCC5C6(C)CCC(OC(=O)CN)C(C)(C)C6CCC54C)C2C1OC3 (centres unmarked) [Allobetulin-3-glycine],Fungal growth,[9],+
same,Pityrosporum ovale growth,[10],+
same,Fungal growth,[11],+
same,Fungal growth,[12],−
same,Fungal growth,[13],++
same,Fungal growth,[14],−
C=C(C)C1CCC2(CO)CCC3(C)C(CCC4C5(C)CCC(OC(=O)C=CC(=O)O)C(C)(C)C5CCC43C)C12 (centres unmarked) [Betulin-3-maleate],Fungal growth,[1]; 125 μg/ml,++
same,Fungal growth,[1]; 250 μg/ml,++
same,Fungal growth,[1]; 500 μg/ml,+
same,Fungal growth,[1]; 1000 μg/ml,−
same,Fungal growth,[2]; 125 μg/ml,+
same,Fungal growth,[2]; 250 μg/ml,+/−
same,Fungal growth,[2]; 500 μg/ml,+/−
same,Fungal growth,[2]; 1000 μg/ml,−
same,Fungal growth,[3]; 125 μg/ml,++
same,Fungal growth,[3]; 250 μg/ml,++
same,Fungal growth,[3]; 500 μg/ml,+
same,Fungal growth,[3]; 1000 μg/ml,−
same,Fungal growth,[4]; 125 μg/ml,+++
same,Fungal growth,[4]; 250 μg/ml,+++
same,Fungal growth,[4]; 500 μg/ml,++
same,Fungal growth,[4]; 1000 μg/ml,+/−
same,Fungal growth,[5]; 125 μg/ml,+++
same,Fungal growth,[5]; 250 μg/ml,++
same,Fungal growth,[5]; 500 μg/ml,++
same,Fungal growth,[5]; 1000 μg/ml,−
same,Fungal growth,[6]; 125 μg/ml,++
same,Fungal growth,[6]; 250 μg/ml,+
same,Fungal growth,[6]; 500 μg/ml,+/−
same,Fungal growth,[6]; 1000 μg/ml,−
same,Fungal growth,[7]; 125 μg/ml,++
same,Fungal growth,[7]; 250 μg/ml,+
same,Fungal growth,[7]; 500 μg/ml,−
same,Fungal growth,[7]; 1000 μg/ml,−
same,Fungal growth,[8]; 125 μg/ml,+/−
same,Fungal growth,[8]; 250 μg/ml,+/−
same,Fungal growth,[8]; 500 μg/ml,−
same,Fungal growth,[8]; 1000 μg/ml,−
"COC1=CC(=O)C[C@@H](C)[C@]12Oc1c(Cl)c(OC)cc(OC)c1C2=O [Griseofulvin, reference compound]",Fungal growth,[1]; 125 μg/ml,+/−
same,Fungal growth,[1]; 250 μg/ml,+/−
same,Fungal growth,[1]; 500 μg/ml,−
same,Fungal growth,[1]; 1000 μg/ml,−
same,Fungal growth,[2]; 125 μg/ml,+/−
same,Fungal growth,[2]; 250 μg/ml,+/−
same,Fungal growth,[2]; 500 μg/ml,−
same,Fungal growth,[2]; 1000 μg/ml,−
same,Fungal growth,[3]; 125 μg/ml,+/−
same,Fungal growth,[3]; 250 μg/ml,+/−
same,Fungal growth,[3]; 500 μg/ml,−
same,Fungal growth,[3]; 1000 μg/ml,−
same,Fungal growth,[4]; 125 μg/ml,+++
same,Fungal growth,[4]; 250 μg/ml,+++
same,Fungal growth,[4]; 500 μg/ml,++
same,Fungal growth,[4]; 1000 μg/ml,−
same,Fungal growth,[5]; 125 μg/ml,+/−
same,Fungal growth,[5]; 250 μg/ml,+/−
same,Fungal growth,[5]; 500 μg/ml,−
same,Fungal growth,[5]; 1000 μg/ml,−
same,Fungal growth,[6]; 125 μg/ml,++
same,Fungal growth,[6]; 250 μg/ml,+
same,Fungal growth,[6]; 500 μg/ml,−
same,Fungal growth,[6]; 1000 μg/ml,−
same,Fungal growth,[7]; 125 μg/ml,++
same,Fungal growth,[7]; 250 μg/ml,+
same,Fungal growth,[7]; 500 μg/ml,−
same,Fungal growth,[7]; 1000 μg/ml,−
same,Fungal growth,[8]; 125 μg/ml,−
same,Fungal growth,[8]; 250 μg/ml,−
same,Fungal growth,[8]; 500 μg/ml,−
same,Fungal growth,[8]; 1000 μg/ml,−
same,Fungal growth,[9],−
same,Pityrosporum ovale growth,[10],+
same,Fungal growth,[11],−
same,Fungal growth,[12],−
same,Fungal growth,[13],−
same,Fungal growth,[14],−
C=C(C)C1CCC2(C)CCC3(C)C(CCC4C5(C)CCC(OC(=O)CCC(=O)O)C(C)(C)C5CCC43C)C12 (centres unmarked) [Lupeol-3-succinate],Fungal growth,[9],+
same,Pityrosporum ovale growth,[10],+
same,Fungal growth,[11],+
same,Fungal growth,[12],−
same,Fungal growth,[13],+
same,Fungal growth,[14],−
